The values below come from US11535630B2, “Apelin receptor (APJ) agonists and uses thereof” (Research Triangle Institute, priority 2015, dated 2022).

Broadly, the EC50 is the concentration at which the effect is half-maximal.

Some results are limits rather than exact numbers.

In this assay the target is T1, apelin receptor (APJ) (Homo sapiens, UniProt P35414).
T1 sequence (P35414 1-380): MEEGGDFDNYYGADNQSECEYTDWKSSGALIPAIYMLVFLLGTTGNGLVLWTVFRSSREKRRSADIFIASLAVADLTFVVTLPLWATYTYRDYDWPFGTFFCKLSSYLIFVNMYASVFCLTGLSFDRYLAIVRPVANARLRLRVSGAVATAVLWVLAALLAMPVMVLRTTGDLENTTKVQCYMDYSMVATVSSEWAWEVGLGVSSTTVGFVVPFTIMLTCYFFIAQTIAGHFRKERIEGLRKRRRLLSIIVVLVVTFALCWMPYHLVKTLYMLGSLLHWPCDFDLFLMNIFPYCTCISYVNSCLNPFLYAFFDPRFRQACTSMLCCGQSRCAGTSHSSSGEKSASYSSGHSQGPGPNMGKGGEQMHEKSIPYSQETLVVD
The experiment in a line: In vitro apelin agonist activity (methods of Giddings et al., Apelin-13 as positive control). The format is cell-based. As to conditions: in vitro apelin agonist activity, methods of Giddings et al., Apelin-13 as positive control; read-out: EC50 (nM) Ave. An excerpt: Characterization of the Apelin Agonist Activity of the Compounds
1:39-47, the contents of which are hereby incorporated by reference in its entirety. Using the methods described in Giddings et al. and Apelin-13 as a positive control.
For `COc1cccc(OC)c1-c1cc(C(=O)N[C@@H](/C=C/c2ccccn2)CC(=O)NC2CCC2)nn1C1CCCC1` [compound 435, (3R,4E)-N-cyclobutyl-3-{[1-cyclopentyl-5-(2,6-dimethoxyphenyl)-1H-pyrazol-3-yl]formamido}-5-(pyridin-2-yl)pent-4-enamide], the EC50 came to 9210 nM.

As for `Cc1cnc(NC(=O)C[C@H](CCN2CCC(F)(F)CC2)NC(=O)c2cc(-c3ccccc3C(F)(F)F)n(C3CCCC3)n2)s1` [compound 436, (3S)-3-({1-cyclopentyl-5-[2-(trifluoromethyl)phenyl]-1H-pyrazol-3-yl]formamido)-5-(4,4-difluoropiperidin-1-yl)-N-(5-methyl-1,3-thiazol-2-yl)pentanamide], the EC50 was found to be 58 nM. In the case of `C#Cc1ccccc1-c1cc(C(=O)N[C@@H](CCN2CCCCC2)CC(=O)NC2CCC2)nn1C1CCCC1` [compound 438, (3S)-N-cyclobutyl-3-{[1-cyclopentyl-5-(2-ethynylphenyl)-1H-pyrazol-3-yl]formamido}-5-(piperidin-1-yl)pentanamide], the EC50 is 290 nM.

Regarding `O=C(C[C@H](CCN1CCC(F)(F)CC1)NC(=O)c1cc(-c2ccccc2C(F)(F)F)n(C2CCCC2)n1)NCc1ccccc1` [compound 439, (3S)-N-benzyl-3-({1-cyclopentyl-5-[2-(trifluoromethyl)phenyl]-1H-pyrazol-3-yl}formamido)-5-(4,4-difluoropiperidin-1-yl)pentanamide], the EC50 was found to be 920 nM. The value for `O=C(C[C@H](CCN1CCC(F)(F)CC1)NC(=O)c1cc(-c2ccccc2C(F)(F)F)n(C2CCCC2)n1)NCC1CCCCC1` [compound 440, (3S)-N-(cyclohexylmethyl)-3-({1-cyclopentyl-5-[2-(trifluoromethyl)phenyl]-1H-pyrazol-3-yl]formamido)-5-(4,4-difluoropiperidin-1-yl)pentanamide] was 301 nM; that for `CC(C)C[C@@H](CC(=O)NCc1ccccc1)NC(=O)c1cc(-c2ccccc2C(F)(F)F)n(C2CCCC2)n1` [compound 441, (3S)-N-benzyl-3-({1-cyclopentyl-5-[2-(trifluoromethyl)phenyl]-1H-pyrazol-3-yl}formamido)-5-methylhexanamide] was over 10000 nM.

In the case of `O=C(CCNC(=O)c1cc(-c2ccccc2C(F)(F)F)n(C2CCCC2)n1)NCc1ccccc1` [compound 442, N-benzyl-3-({1-cyclopentyl-5-[2-(trifluoromethyl)phenyl]-1H-pyrazol-3-yl}formamido)propanamide], the EC50 is over 10000 nM. The figure for `COc1cccc(OC)c1-c1cc(C(=O)N[C@@H](CCN2CCCCC2)Cc2nnnn2C)nn1C1CCCC1` [compound 445, 1-cyclopentyl-5-(2,6-dimethoxyphenyl)-N-[(2S)-1-(1-methyl-1H-1,2,3,4-tetrazol-5-yl)-4-(piperidin-1-yl)butan-2-yl)-1H-pyrazole-3-carboxamide] is 2830 nM. The figure for `CN(C(=O)C[C@H](CCN1CCCC(F)(F)C1)NC(=O)c1cc(-c2ccccc2Cl)n(C2CCCC2)n1)c1nccs1` [compound 447, (3S)-3-{[5-(2-chlorophenyl)-1-cyclopentyl-1H-pyrazol-3-yl]formamido}-5-(3,3-difluoropiperidin-1-yl)-N-methyl-N-(1,3-thiazol-2-yl)pentanamide] is 84 nM; for `COc1cccc(OC)c1-c1cc(C(=O)N[C@@H](CCN2CCCCC2)Cc2nccs2)nn1C1CCCC1` [compound 448, 1-cyclopentyl-5-(2,6-dimethoxyphenyl)-N-[(2S)-4-(piperidin-1-yl)-1-(1,3-thiazol-2-yl)butan-2-yl]-1H-pyrazole-3-carboxamide] it is 1340 nM; for `O=C(CCNC(=O)c1cc(-c2ccccc2C(F)(F)F)n(C2CCCC2)n1)Nc1nccs1` [compound 449, 3-({1-cyclopentyl-5-[2-(trifluoromethyl)phenyl]-1H-pyrazol-3-yl}formamido)-N-(1,3-thiazol-2-yl)propanamide] it is 12700 nM.

For `O=C(N[C@@H](CCN1CCCC(F)(F)C1)Cc1nnc[nH]1)c1cc(-c2ccccc2Cl)n(C2CCCC2)n1` [compound 450, 5-(2-chlorophenyl)-1-cyclopentyl-N-[(2S)-4-(3,3-difluoropiperidin-1-yl)-1-(4H-1,2,4-triazol-3-yl)butan-2-yl]-1H-pyrazole-3-carboxamide], the EC50 turned out to be 30 nM. Consider `CN(C(=O)C[C@H](CCN1CCCC(F)(F)C1)NC(=O)c1cc(-c2ccccc2C(F)(F)F)n(C2CCCC2)n1)c1ncco1` [compound 451, (3S)-3-({1-cyclopentyl-5-[2-(trifluoromethyl)phenyl]-1H-pyrazol-3-yl}formamido)-5-(3,3-difluoropiperidin-1-yl)-N-methyl-N-(1,3-oxazol-2-yl)pentanamide], for which the EC50 is 27 nM.

`CN(C(=O)C[C@H](CCN1CCCC(F)(F)C1)NC(=O)c1cc(-c2ccccc2Cl)n(C2CCCC2)n1)c1ncco1` [compound 452, (3S)-3-{[5-(2-chlorophenyl)-1-cyclopentyl-1H-pyrazol-3-yl]formamido}-5-(3,3-difluoropiperidin-1-yl)-N-methyl-N-(1,3-oxazol-2-yl)pentanamide]: the concentration giving a half-maximal response (EC50) came out at 70 nM. The figure for `O=C(C[C@H](CCN1CCCC(F)(F)C1)NC(=O)c1cc(-c2ccncc2Cl)n(C2CCCC2)n1)NC1CCC1` [compound 457, (3S)-3-{[5-(3-chloropyridin-4-yl)-1-cyclopentyl-1H-pyrazol-3-yl]formamidol}-N-cyclobutyl-5-(3,3-difluoropiperidin-1-yl)pentanamide] is 1320 nM; for `Cc1nnc(C[C@H](CCN2CCCC(F)(F)C2)NC(=O)c2cc(-c3ccccc3Cl)n(C3CCCC3)n2)[nH]1` [compound 458, 5-(2-chlorophenyl)-1-cyclopentyl-N-[(2S)-4-(3,3-difluoropiperidin-1-yl)-1-(5-methyl-4H-1,2,4-triazol-3-yl)butan-2-yl]-1H-pyrazole-3-carboxamide] it is 261 nM; for `O=C(N[C@@H](CCN1CCCC(F)(F)C1)Cc1nnc(C(F)(F)F)[nH]1)c1cc(-c2ccccc2Cl)n(C2CCCC2)n1` [compound 459] it is 243 nM. The value for `O=C(C[C@H](CCN1CCCC(F)(F)C1)NC(=O)c1cc(-c2cnccc2C(F)(F)F)n(C2CCCC2)n1)NC1CCC1` [compound 460, (3S)-N-cyclobutyl-3-(f 1-cyclopentyl-544-(trifluoromethyppyridin-3-yl1-1H-pyrazol-3-yl}formamido)-5-(3,3-difluoropiperidin-1-yl)pentanamide] was 23 nM; that for `O=C(O)C[C@H](CCc1ccc(F)cc1)NC(=O)c1cc(-c2ccccc2C(F)(F)F)n(C2CCCC2)n1` [compound 463] was 1240 nM. The value for `NNC(=O)C[C@H](CCc1ccc(F)cc1)NC(=O)c1cc(-c2ccccc2C(F)(F)F)n(C2CCCC2)n1` [compound 464] was 1040 nM; that for `NNC(=O)C[C@H](CCN1CCCC(F)(F)C1)NC(=O)c1cc(-c2ccccc2Cl)n(C2CCCC2)n1` [compound 465, 5-(2-chlorophenyl)-1-cyclopentyl-N-[(2S)-4-(3,3-difluoropiperidin-1-yl)-1-(hydrazinecarbonyl)butan-2-yl]-1H-pyrazole-3-carboxamide] was 191 nM; that for `O=C(C[C@H](CCN1CCCC(F)(F)C1)NC(=O)c1cc(-c2cnccc2Cl)n(C2CCCC2)n1)NC1CCC1` [compound 466, (3S)-3-{[5-(4-chloropyridin-3-yl)-1-cyclopentyl-1H-pyrazol-3-yl]formamido}-N-cyclobutyl-5-(3,3-difluoropiperidin-1-yl)pentanamide] was 1220 nM. Take `O=C(O)C[C@H](CCN1CCCC(F)(F)C1)NC(=O)c1cc(-c2cnccc2Cl)n(C2CCCC2)n1` [compound 467, (3S)-3-{[5-(4-chloropyridin-3-yl)-1-cyclopentyl-1H-pyrazol-3-yl]formamido}-5-(3,3-difluoropiperidin-1-yl)pentanoic acid]: the EC50 was over 10000 nM. For `O=C(O)C[C@H](CCN1CCCC(F)(F)C1)NC(=O)c1cc(-c2cccnc2Cl)n(C2CCCC2)n1` [compound 468], the EC50 was 1670 nM. The value for `O=C(C[C@H](CCN1CCCC(F)(F)C1)NC(=O)c1cc(-c2cccnc2Cl)n(C2CCCC2)n1)NC1CCC1` [compound 469, (3S)-3-{[5-(2-chloropyridin-3-yl)-1-cyclopentyl-1H-pyrazol-3-yl]formamido}-N-cyclobutyl-5-(3,3-difluoropiperidin-1-yl)pentanamide] was 133 nM. The figure for `O=C(N[C@@H](CCc1ccc(F)cc1)Cc1nnc[nH]1)c1cc(-c2ccccc2C(F)(F)F)n(C2CCCC2)n1` [compound 470, 1-cyclopentyl-N-[(2S)-4-(4-fluorophenyl)-1-(4H-1,2,4-triazol-3-yl)butan-2-yl]-5-[2-(trifluoromethyl)phenyl]-1H-pyrazole-3-carboxamide] is 435 nM; for `Cc1nnc(C[C@H](CCc2ccc(F)cc2)NC(=O)c2cc(-c3ccccc3C(F)(F)F)n(C3CCCC3)n2)[nH]1` [compound 471, 1-cyclopentyl-N-[(2S)-4-(4-fluorophenyl)-1-(5-methyl-4H-1,2,4-triazol-3-yl)butan-2-yl]-5-[2-(trifluoromethyl)phenyl]-1H-pyrazole-3-carboxamide] it is 1140 nM; for `O=C(N[C@@H](CCc1ccc(F)cc1)Cc1nnc(C(F)(F)F)o1)c1cc(-c2ccccc2C(F)(F)F)n(C2CCCC2)n1` [compound 475, 1-cyclopentyl-N-[(2S)-4-(4-fluorophenyl)-1-[5-(trifluoromethyl)-1,3,4-oxadiazol-2-yl]butan-2-yl]-5-[2-(trifluoromethyl)phenyl]-1H-pyrazole-3-carboxamide] it is 146 nM.
